Test results as given in US7977320B2, “Method of increasing efficacy of tumor cell killing using combinations of anti-neoplastic agents” (The Regents of the University of California, priority 2004, dated 2011).

Assays:
Format in all cases: cell-based
primary AML cells [1] = experiment: proliferative response of primary AML samples to GO; details: for responsive samples: FIG. 3A
Method: More specifically, for Panel A, colony formation assays were performed as follows: HL-60 cells were treated and cultured in 0.3% agarose in triplicate for each condition in the presence of 0.01 ug/ml of antibodies. After 14 days of culture, the number of colonies was enumerated in each dish. The basal level of colony formation (>400 per dish) was considered as 100% and the percentage of stimulation was calculated for each condition. Error bars in the figure indicate the SEM. Each graph is representative of at least 3 independent experiments. For Panel B, primary leukemia cells were cultured for 48 hours in the presence of 0.01 ug/ml of anti-CD33 mAb or control mouse IgG. Each bar in the figure summarizes (median) the proliferative response of that group. The basal level of untreated cell proliferation (CPM>5500 CPM) was considered as 0%. Inhibition was calculated as the percent change for that condition. Error bars indicate the SEM.
With the knowledge of the effect of a naked anti-CD33 antibody on Syk activation and cell proliferation or death, we investigated the effect of an immunotoxin (GO; Mylotarg® (Wyeth)) on these characteristics. GO was selected based on its approval status by the FDA. Proliferation assays were performed as described above. Various concentration of GO were added at the initiation of 48 hour culture. The basal levels of cell proliferation (untreated cells) were >10000 cpm and were considered as 100%. The percentage of change was calculated for each condition for each sample. Error bars indicate the SEM.

HL-60 cells = experiment: proliferation assay of HL-60 cells transfected with Syk si-RNA or control RNA; details: Syk si-RNA-transfected HL-60 cells versus control RNA treated or untreated cells, FIG. 4B
Method: To test whether there is a correlation between response of AML cells to CD33 ligation and/or GO treatment and the level of their Syk expression, “blocking” experiments were performed. In order to block Syk expression, we used Syk-si-RNA transfection. More specifically, for the results presented in FIGS. 4A and 4B, HL-60 cells were transfected with Syk si-RNA or control RNA and grown in cell culture under normal conditions for these cells. 72 hours post-transfection, cells were cultured in the presence of optimal ([…]) concentration of mAb, as disclosed above (FIG. 4A) or the indicated concentrations of Mylotarg® (Wyeth) (FIG. 4B). Proliferation assays were performed as described above. The basal level of proliferation was >10000 CPM (considered as 100%). Each point represents the percent change for that condition. Error bars indicate the SEM. Bars compared and marked with asterisk have a statistically significant difference. For FIG. 4C, HL-60 cells were transfected with Syk si-RNA or control RNA. After 72 hours of culture under typical culture conditions, cell lysates were prepared and used to generate immune precipitates with the appropriate mAb.

primary AML cells [2] = experiment: proliferation assay of primary AML samples after 5-azacytidine treatment; details: for inhibition of proliferation: Syk+ cells, FIG. 7A
Method: (§1) To evaluate the effect of certain chemotherapeutic agents on signal transduction through Syk and/or SHP-1, experiments were performed on primary AML samples. Primary leukemia cells were treated with 5-azacytidine for 4 days under otherwise normal cell culture growth conditions. The cells were then washed twice, and a proliferation assay was performed as described above. The basal level of proliferation (untreated cells) was considered as 100% and the percent change was calculated for each condition. Error bars indicate the SEM.

SHP-1 = SHP-1 expression in primary AML samples after 5-azacytidine treatment; details: 2 of 5 SHP-1-negative primary AML samples
Syk = Syk expression in primary AML samples after 5-azacytidine treatment
Method: Based on these observations, we tested a panel of 25 primary AML samples for Syk expression using standard Western blotting and an anti-Syk or anti-ZAP-70 mouse monoclonal antibody from Santa Cruz Biochem.
as §1
Syk is not only an important protein kinase, but also a tumor suppressor. In many cancer cells, Syk is silenced by hypemethylation of the DNA encoding it. This hypermethylation can lead to absence of Syk expression and, as a result, to unresponsiveness of tumor cells to various treatments. To block possible hyper-methylation and restore Syk expression in Syk-negative primary AML samples, we used 5-azacytidine. Other hypomethylating agents could work as well. The results of the experiments are depicted in FIG. 7, Panels A-D.

Row | Compound | responsive samples (primary AML cells [1]; Syk-negative primary AML samples) [%] | responsive samples (primary AML cells [1]; Syk-positive primary AML samples) [%] | level of inhibition of proliferation (primary AML cells [1]; Syk-positive samples versus Syk-negative samples, p<0.003) | proliferative response (primary AML cells [1]; both Syk-positive and Syk-negative samples, 48 hour culture, FIG. 3B) | response of proliferation to treatment (HL-60 cells) | level of inhibition of proliferation (primary AML cells [2]; 5-aza alone, Syk-positive or SHP-positive samples versus negative samples) | inhibition of proliferation (primary AML cells [2]; 5-azacytidine 4 days combined with GO) | inhibition of proliferation (primary AML cells [2]; 5-azacytidine 4 days combined with naked anti-CD33 antibody) | effect of anti-CD33 antibodies on proliferation (primary AML cells [2]; Syk- cells (non-responders) treated with the hypomethylating agent, FIG. 7B) | level of inhibition of proliferation (primary AML cells [2]; Syk-negative or SHP-1-negative samples, 5-aza combined with Mylotarg) | level of inhibition of proliferation (primary AML cells [2]; Syk-negative or SHP-1-negative samples, 5-aza combined with anti-CD33 mAb) | samples with restored SHP-1 (SHP-1) [%] | samples with restored Syk expression (Syk; 5 of 15 Syk-negative primary AML samples) [%] | level of Syk expression (Syk; Syk-positive samples (data not shown))
1 | gemtuzumab ozogamicin [GO] | 17 | 83 | higher than in Syk-negative samples | dose-dependent inhibition | significantly lower response |  |  |  |  |  |  |  |  | 
2 | Nc1ncn([C@@H]2O[C@H](CO)[C@@H](O)[C@H]2O)c(=O)n1 [5-azacytidine, 5-Azacytidine] |  |  |  |  |  | significantly higher | increased inhibition of proliferation | increased inhibition of proliferation | substantially increased | comparable to positive samples | comparable to positive samples | 40 | 33 | un-changed
